Among the data in article PMC12040169 (PLOS Biology, 2025) are viability values, retold here.

As a reminder, the viability is a read-out of living cells in per cent, often relative to untreated cells.

Structures are written as SMILES.

The series can be described thus: in vitro. As to conditions: human, hela cells, % viability.
With `COc1ccc2c(CCNC(=O)C(c3ccccc3)c3ccccc3)c[nH]c2c1` [CBK269294], the viability at 28.5 h, 10 µM was determined as 81.3%.

Regarding `CC(Cc1nc(-c2nccn2C(C)C)cs1)n1cc(Cl)cn1` (stereo not shown) [CBK304251], the viability at 28.5 h, 10 µM came out at 102%.

For `O=C(CSCc1ccc(Cl)cc1Cl)Nc1ccc(Oc2ccc3c(c2)C(=O)NC3=O)cc1` [CBK266779], the viability at 28.5 h, 10 µM amounted to 92.2%.

`O=C1CC[C@@H](NCc2cccs2)[C@H](c2cc(F)cc(F)c2)N1` [CBK283129]: the viability at 28.5 h, 10 µM worked out at 95.5%.

With `Cc1ccc(F)c(S(=O)(=O)NC(C)Cc2ccccn2)c1` (stereo not shown) [CBK281427], the viability at 28.5 h, 10 µM is 90.5%.

On to `CN1CCN(CCC(=O)Nc2ccc3c(c2)CCC3)CC1` [CBK264197], for which the viability at 28.5 h, 10 µM is 95.3%.

As for `Cc1cc(SCC2=NNC(=O)C2)c(Cl)cc1Cl` [CBK067769], the viability at 28.5 h, 10 µM was found to be 92.8%.

For the molecule `COc1ccc([C@@]23CC[C@H](NC(=O)Nc4cccc(C(F)(F)F)c4F)C[C@@H]2CN(C)C3)cc1OC` [CBK063200A], the viability at 28.5 h, 10 µM worked out at 92.3%.

As for `Cc1nc2ccccc2c(=O)n1CCC(=O)N1CCc2sccc2C1c1ccco1` (stereo not shown) [CBK285706], the viability at 28.5 h, 10 µM turned out to be 94.3%.

Turning to `CC(C)C(=O)N1CCN(C(=O)Cn2c(-c3ccc(Cl)cc3)n[nH]c2=S)CC1` [CBK297910], the viability at 28.5 h, 10 µM stood at 100%.

`O=S(=O)(Nc1cc(-c2ccco2)n[nH]1)c1ccc(Br)cc1C(F)(F)F` [CBK067286]: the viability at 28.5 h, 10 µM came out at 96.2%.

Turning to `CCC1CCCCN1C(=O)c1cc(C)ccc1F` (stereo not shown) [CBK082754], the viability at 28.5 h, 10 µM is 108%.

`Cc1ccc(-c2nn3c(C)nnc3c3ccccc23)cc1S(N)(=O)=O` [CBK268342]: the viability at 28.5 h, 10 µM was determined as 97.3%.

Regarding `Cc1cc2oc(C(=O)Nc3nc(-c4ccc(S(=O)(=O)N5CCCC5)cc4)cs3)c(C)c2cc1C` [CBK266309], the viability at 28.5 h, 10 µM stood at 89.5%.

Take `COC(=O)c1ccc(C2N(Cc3ccccc3)CCN2Cc2ccccc2)cc1` [CBK265201]: the viability at 28.5 h, 10 µM was 87.3%.

As for `COc1cc(CNc2nccnc2-c2ccc(F)cc2)cc(OC)c1OC` [CBK037328], the viability at 28.5 h, 10 µM was 90.3%.

In the case of `O=C(O)c1ccc(Sc2ccc(S(=O)(=O)c3ccc(C(=O)O)c(C(=O)O)c3)cc2)cc1` [CBK261253], the viability at 28.5 h, 10 µM was 106%.

With `CC1Cc2cc(C(=O)C3=C(O)C(=O)N(Cc4ccco4)C3c3cccnc3)ccc2O1` (stereo not shown) [CBK266236], the viability at 28.5 h, 10 µM amounted to 104%.

For `Cc1cccc(-c2ncc(NC(=O)c3cccc(N(C)C)c3)nc2-c2ccco2)c1` [CBK036654], the viability at 28.5 h, 10 µM is 103%.

Consider `CCOC(=O)c1c(C)n(-c2ccc(OC)cc2)c2ccc(O)c(CN(C)C)c12` [CBK261609C], for which the viability at 28.5 h, 10 µM was 88%.

As to `O=C1c2ccccc2C(=O)N1c1ccc2nc(SCc3nc4ccccc4[nH]3)sc2c1` [CBK263368], the viability at 28.5 h, 10 µM is 95%.

Consider `CC(C)COC(=O)N1CCC(N(C)Cc2ccc(-c3ccc(S(C)(=O)=O)cc3)nc2)CC1` [CBK165259T], for which the viability at 28.5 h, 10 µM was 90.4%.

Take `O=C(O)c1ccc(CSc2nc3ccccc3[nH]2)cc1` [CBK286892]: the viability at 28.5 h, 10 µM was 82%.

Take `c1cnc(-c2nnn[nH]2)c(-c2ccc(COc3ccc4c(c3)OCO4)cc2)n1` [CBK050812]: the viability at 28.5 h, 10 µM was 107%.

Regarding `CC(NC(=O)C1CCN(Cc2cccnc2)CC1)c1ccc(F)cc1` (stereo not shown) [CBK148032], the viability at 28.5 h, 10 µM is 94.4%.

Consider `COC(=O)[C@@H](C)NC(=O)[C@@H]1CN(C(=O)NC(C)C)CCN1C(=O)C1CCCCC1` [CBK289622], for which the viability at 28.5 h, 10 µM stood at 90.7%.

Consider `Cc1ccc(S(=O)(=O)N2CCC(C(=O)NC(c3ccccc3C)c3ncccc3C)CC2)cc1` (stereo not shown) [CBK060249], for which the viability at 28.5 h, 10 µM amounted to 94.3%.

In the case of `NNC(=O)C(NC(=O)c1ccccc1)c1n[nH]c(=O)c2ccccc12` (stereo not shown) [CBK261144], the viability at 28.5 h, 10 µM was found to be 92.9%.

Take `Cc1ccc(OCCO)cn1` [CBK001786]: the viability at 28.5 h, 10 µM came to 91%.

For `O=C1CCC(=O)N1CCOc1nccnc1N1CCN(CC2CCCCC2)CC1` [CBK084306], the viability at 28.5 h, 10 µM was determined as 88.9%.

Turning to `Fc1cccc(-c2nc3cnccn3c2NC2CCCC2)c1` [CBK283780], the viability at 28.5 h, 10 µM was found to be 81.4%.

Consider `Cc1ccc(SC(C)C(=O)NCCCN2CCOCC2)cc1` (stereo not shown) [CBK268624], for which the viability at 28.5 h, 10 µM amounted to 88.5%.

Consider `COc1ccc(C2(O)CCN(CC(O)c3ccc4c(c3)CCC4)CC2)cc1` (stereo not shown) [CBK286334], for which the viability at 28.5 h, 10 µM came out at 95.9%.

As to `COCc1cc(CN2CCN(C)CC2)c(O)c2ncccc12` [CBK263546], the viability at 28.5 h, 10 µM stood at 85.1%.

Consider `Nc1ncc(-c2ccc(O)cc2)nc1N1CCC[C@@H]1CO` [CBK063669], for which the viability at 28.5 h, 10 µM is 91.7%.

Consider `CC1CCN(Cc2ccc(-c3nnn(CC(=O)NCc4ccc(Cl)cc4Cl)n3)cc2)CC1` [CBK144180C], for which the viability at 28.5 h, 10 µM was determined as 96.5%.

As for `N#Cc1nc(COc2ccc(Br)cc2)oc1NC1CC1` [CBK266470], the viability at 28.5 h, 10 µM came out at 94.6%.

With `Cc1ccccc1-n1ccn(C(=O)CCCOc2ccc(Cl)cc2)c1=O` [CBK106573], the viability at 28.5 h, 10 µM was determined as 88.5%.

For the molecule `Clc1ccc(Nc2cncc(-c3cccs3)n2)cc1` [CBK065805], the viability at 28.5 h, 10 µM came to 107%.

For `CCn1ncc(CN2CCN(C(=O)c3nn(C)cc3C(=O)O)CC2)c1C` [CBK286870], the viability at 28.5 h, 10 µM came out at 89.3%.

On to `CCc1c(C)nc2c(C(=O)N3CCOCC3)cnn2c1C` [CBK162134], for which the viability at 28.5 h, 10 µM is 99.3%.

As for `Nc1nc(N)nc(-c2ccc(-c3nc(N)nc(N)n3)cc2)n1` [CBK261494], the viability at 28.5 h, 10 µM was found to be 90.4%.

In the case of `CN(C)CC1CCCCN1C(=O)C1C2CCCCC21` (stereo not shown) [CBK282087], the viability at 28.5 h, 10 µM was determined as 97.7%.

With `N#Cc1ccc(Oc2ccc(C(=O)NCC(=O)O)cc2)cc1` [CBK286579], the viability at 28.5 h, 10 µM is 90.1%.

Regarding `Cc1cccc(OCC(=O)NCC(c2cccs2)N2CCOCC2)c1` (stereo not shown) [CBK305426], the viability at 28.5 h, 10 µM was found to be 90.1%.

As to `COc1ccc(Cl)cc1NC(=O)CC(C)(C)CC(=O)O` [CBK001236], the viability at 28.5 h, 10 µM stood at 90.4%.

As for `Cc1ccc([N+](=O)[O-])cc1/C=C(/C#N)c1nc2ccccc2s1` [CBK267085], the viability at 28.5 h, 10 µM came to 95.4%.

For the molecule `CN(C)CC(O)c1cc2n(n1)CCCN(CC(=O)NCc1cccs1)C2` (stereo not shown) [CBK306738], the viability at 28.5 h, 10 µM was 91.6%.

With `CN(C)S(=O)(=O)N(CC(=O)Nc1cccnc1)c1ccccc1` [CBK267958], the viability at 28.5 h, 10 µM turned out to be 119%.

In the case of `COCCn1nnnc1C(c1cc2c(C)ccc(C)c2[nH]c1=O)N1CCN(C(=O)c2ccco2)CC1` (stereo not shown) [CBK111563], the viability at 28.5 h, 10 µM is 98.6%.

With `Cc1cn(CC(=O)N2CCC(Cn3cncn3)(C3CCCCC3)CC2)c(=O)[nH]c1=O` [CBK136800], the viability at 28.5 h, 10 µM was determined as 88.4%.

For the molecule `COc1cccc(OC)c1OCCN1CCNCC1` [CBK265089G], the viability at 28.5 h, 10 µM is 90.7%.

In the case of `C=CCn1c(SCC(=O)O)nnc1-c1ccc([N+](=O)[O-])cc1` [CBK262736], the viability at 28.5 h, 10 µM stood at 88.6%.

`CCOC(=O)c1ccnc(-c2cc3ccccc3o2)c1` [CBK149253]: the viability at 28.5 h, 10 µM was 101%.

As to `O=C(O)CCSc1nnnn1-c1ccccc1` [CBK287217], the viability at 28.5 h, 10 µM was 88.4%.

As for `CS(=O)(=O)Nc1ccc(C(=O)Nc2ccc(S(=O)(=O)N3CCCC3)cc2)cc1` [CBK268592], the viability at 28.5 h, 10 µM was found to be 116%.

`O=C1COc2ccccc2C/C=C/CC2(CCN(C(=O)Cc3cccnc3)CC2)C(=O)NCCN1` [CBK292153]: the viability at 28.5 h, 10 µM turned out to be 110%.

`NCCc1nc2ccccc2[nH]1` [CBK278287C]: the viability at 28.5 h, 10 µM is 91.8%.

Regarding `O=C(CCc1ccccc1)NNC(=O)C1CC1c1ccccc1` (stereo not shown) [CBK261292], the viability at 28.5 h, 10 µM was 114%.

In the case of `O=c1cc(CN2CCC(Cc3ccccc3)CC2)[nH]c(=O)[nH]1` [CBK126388], the viability at 28.5 h, 10 µM worked out at 104%.

As for `CCCCCCN1CCN(c2nccn(CCOc3cc(F)c(F)cc3F)c2=O)CC1` [CBK045889C], the viability at 28.5 h, 10 µM amounted to 113%.

`COc1cc(CNc2cncc(-c3ccc4c(c3)OCO4)n2)cc(OC)c1OC` [CBK065922]: the viability at 28.5 h, 10 µM amounted to 99.5%.

Consider `COc1ccccc1NC(=O)c1cn(Cc2ccc(N)cc2)cn1` [CBK288045], for which the viability at 28.5 h, 10 µM stood at 99.5%.

Regarding `COCC(=O)NC(C)c1nc2ccccc2n1Cc1ccccc1C` (stereo not shown) [CBK269885], the viability at 28.5 h, 10 µM came to 88.1%.

Consider `O=C1c2ccc(Oc3cccc(Oc4ccc5c(c4)C(=O)N(CCO)C5=O)c3)cc2C(=O)N1CCO` [CBK261398], for which the viability at 28.5 h, 10 µM was 110%.

Consider `O=C(CCN1C(=O)c2cccc3cccc(c23)C1=O)N1CCN(Cc2ccc3c(c2)OCO3)CC1` [CBK074420], for which the viability at 28.5 h, 10 µM was found to be 96.2%.

As to `Cc1cc(Br)ccc1S(=O)(=O)N(C)c1ccc(N2CCNCC2)c2ccccc12` [CBK016170C], the viability at 28.5 h, 10 µM was 96%.

For `COC(=O)c1cn(C(=O)c2snnc2C)nc1C(C)(C)C` [CBK021420], the viability at 28.5 h, 10 µM is 89.2%.

In the case of `CCOc1c(OC)cc(C#N)cc1C(=O)O` [CBK269925], the viability at 28.5 h, 10 µM stood at 87.3%.

Consider `CCN1CCCC(NC(=O)COc2nn(C)c3nc(C)cc(C)c23)C1` (stereo not shown) [CBK305224], for which the viability at 28.5 h, 10 µM came out at 113%.

With `Cc1cc(C)n(CC2CN(C(C)C(=O)NCc3ccco3)CCO2)n1` (stereo not shown) [CBK305351], the viability at 28.5 h, 10 µM was 101%.

On to `Cn1ccnc1CN1C(=O)CO[C@H]2CN(Cc3ccc4c(c3)OCO4)C[C@H]21` [CBK289665], for which the viability at 28.5 h, 10 µM is 90%.

As for `CCc1nc2c(OCc3ccc(Cl)cc3)cccn2c1N(C=O)CC(=O)N(C)C` [CBK147518], the viability at 28.5 h, 10 µM turned out to be 96.4%.

With `CCOC(=O)C1CCCCN1Cc1ccc(O)c(OC)c1` (stereo not shown) [CBK261541], the viability at 28.5 h, 10 µM was determined as 96.9%.

As for `CCOc1ccccc1OCC(C)CNC` (stereo not shown) [CBK026242G], the viability at 28.5 h, 10 µM was found to be 120%.

For the molecule `CCn1ccnc1CN1CCOC(Cc2ccccc2Cl)C1` (stereo not shown) [CBK306625], the viability at 28.5 h, 10 µM is 94.5%.

Turning to `COc1ccccc1-c1ncc(OC2CCN(C)C2)nc1N` (stereo not shown) [CBK145081], the viability at 28.5 h, 10 µM came to 92.4%.

As to `COc1ccc(C(=O)COc2nc3c(C(F)(F)F)cc(C4CC4)nc3o2)cc1` [CBK269498], the viability at 28.5 h, 10 µM came to 87%.

On to `Cc1ccc(C(=O)Nc2ccccc2)cc1S(=O)(=O)N1CCN(C)CC1` [CBK270076], for which the viability at 28.5 h, 10 µM was 90.2%.
